Source: patent US20130190370A1, “Novel Tetrahydronaphalene Antagonists to the Thromboxane A2 (TP) Receptor” (The Trustees of the University of Pennsylvania, priority 2010, published 2013)

Assays:
[1] = Unbound fractions in plasma and brain homogenates by equilibrium dialysis; format: in vitro ADME
Excerpt: Without wishing to be bound by any particular theory, it is believed that it is possible (although uncommon) for a BBB-permeable compound to have a very low B/P ratio if the fraction of free, unbound drug is much greater in the […]. More specifically, a drug that is freely diffusible across the BBB will at equilibrium have a free drug B/P ratio (B/Pfree)=1, where B/Pfree=B/P×fu(brain))/fu(plasma) (Maurer, et al., 2005, Drug Metab Dispos. 33:175-181; Kalvasset al., 2007, Drug Metab Dispos. 35:660-666) and fti represents unbound drug fractions. […] To ensure that the low B/P ratios obtained with the TP antagonists of Table 1 were truly reflective of poor BBB permeability, the unbound fractions in plasma and brain homogenates were measured using established equilibrium dialysis methods (Maurer, et al., 2005, Drug Metab Dispos. 33:175-181; Kalvasset al., 2007, Drug Metab Dispos. 35:660-666; Friden, et al., 2007, Drug Metab Dispos. 35:1711-1719). […] This is further illustrated by comparing the calculated B/Pfree ratios (Table 1), which are <<1. Because the existing repertoire of TP receptor antagonists share common structural features, including free carboxylate moieties, it is highly unlikely that any of these existing compounds would be sufficiently brain-penetrant to be potential AD therapeutics.

[2] = Brain and plasma compound levels by LC-MS/MS after 5 mg/kg i.p. injection into mice
Protocol: One-month old B6C3HF1 female mice were given intraperitoneal injections of compounds at 5 mg/kg. 1 hour after injection, mice were lethally anesthetized with an intraperitoneal injection of ketamine hydrochloride (1 mg/10 g) and xylazine (0.1 mg/10 g) and perfused intracardially with PBS in accordance with protocols approved by the University of Pennsylvania.
Brain samples were homogenized in 10 mM ammonium acetate, pH 5.7 (1:2; w/v) using a handheld sonic homogenizer. Compound from 50 μL of brain homogenate or plasma was extracted with 200 μL acetonitrile, centrifuged, and the supernatant removed for LC/MS/MS analysis. Compounds were detected using multiple reaction monitoring (MRM) of their specific collision-induced ion transitions and quantified using peak areas.
The LC/MS/MS system was comprised of an Agility UPLC, a TQ MS, and controlled using MassLynx software (Waters Corporation, Milford, Mass., USA). Samples were separated on an Aquity BEH C18 column (1.7 μm, 2.1×50 mm) at 35° C. For operation in positive electrospray ionization mode, the mobile phase A was 0.1% (v/v) formic acid, and B was either acetonitrile or methanol with 0.1% (v/v) formic acid. For operation in negative electrospray ionization mode, the mobile phase A was 10 mM ammonium acetate, and B was methanol with 10 mM ammonium acetate, Injections of 5 μL were separated at a flow rate of 0.6 mL/min using a gradient from 5% to 95% B over two minutes followed by wash and re-equilibration steps.
The MS was operated with a desolvation temperature of 450° C. and a source temperature of 150° C. Desolvation and source nitrogen gas flows were 900 L/hr and 50 L/hr, respectively. Collision cell argon gas flow was 0.1 mL/min. Source and analyzer voltages were optimized for each compound using the MassLynx auto tune utility. Compound standards at 1000 ng/mL in 50% acetonitrile were infused at 30 μL/min and combined with flow from the UPLC at 0.6 mL/min and 50% B.
Standard curves were generated from spiked brain homogenate and plasma prepared at 4, 40, 400 and 4000 ng/mL and extracted as above. Peak area was plotted versus concentration and a 1/x weighted linear regression curve was used to quantify the unknowns using the average peak area from triplicate injections,
The following experiments were designed to analyze TP receptor antagonists to determine their relative BBB penetration. The TP receptor antagonists were administered via i.p. injection at 5 mg/kg to normal mice, and brain and plasma compound concentrations were assessed by LC-MS/MS at 1 and 4 hours after dosing.
To examine the blood-brain barrier permeability of these compounds, one-month old B6C3F1 mice were injected at 5 mg/kg and sacrificed 1 hour after injection.

mouse TP receptor = biological target: T1, mouse TP receptor (Mus musculus, UniProt P30987); experiment: Radioligand binding assay (3H-SQ29,548), mouse TP receptor; settings: mTP receptor
T1 construct: expressed in transfected cells
T1 sequence (P30987 1-341): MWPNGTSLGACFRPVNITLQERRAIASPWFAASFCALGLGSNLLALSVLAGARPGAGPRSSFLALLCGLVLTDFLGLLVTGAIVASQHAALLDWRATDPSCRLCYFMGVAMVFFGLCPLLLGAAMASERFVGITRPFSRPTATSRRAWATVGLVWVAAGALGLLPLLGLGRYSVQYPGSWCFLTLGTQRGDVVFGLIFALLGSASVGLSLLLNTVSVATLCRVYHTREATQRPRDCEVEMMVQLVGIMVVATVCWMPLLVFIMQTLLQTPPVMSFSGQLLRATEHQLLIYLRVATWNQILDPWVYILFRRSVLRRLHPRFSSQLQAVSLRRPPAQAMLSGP
Protocol: (§1) QBI-HEK 293A cells expressing human or mouse TxA2 (TP) receptor were grown as described previously and harvested in phosphate-buffered saline with 1 mM EDTA. The cell pellet was homogenized in a glass homogenizer in 20 mM Hepes, 1 mM EGTA, 0.5 mM DTT with protease inhibitor cocktail. The homogenate was initially centrifuged at 1000×g for 10 minutes at 8° C. to remove cell debris. The homogenate was then centrifuged in a Beckman L8-70M ultracentrifuge (Beckman-Coulter, Brea, Calif., USA) at 21,000 rpm for 30 minutes at 4° C., and the pellet was resuspended in 20 mM Hepes, 1 mM EGTA, 100 mM NaCl. Membrane preparations were normalized to protein level as determined with a BCA assay (ThermoFisher, Rockland, Ill.) and stored at −80° C.
(§2) Test antagonists were incubated at 10 different concentrations with 25 μg membrane and 25 nM ^3H-SQ29,548 (PerkinElmer, Waltham, Mass., USA) in 50 mM Tris, 4 mM CaCl2, 0.1% ascorbic acid pH 7.5 for 2 hours at 25° C. in 96-well polystyrene plates. Separation of bound from free radioligand was accomplished by rapid vacuum filtration onto 96-well GF/B filter plates (PerkinElmer, Waltham, Mass., USA). Filters were washed 8 times in 50 mM Tris, pH 6.9 and allowed to dry for 16 hours, Plates were sealed and filters dissolved in 50 μL Betaplate Scintillation fluid (PerkinElmer, Waltham, Mass., USA) and read on a scintillation counter. Data are presented as percent total binding as calculated by a minimum of 3 wells containing membrane and ^3H-SQ29,548 without antagonist.
(§3) Equilibrium dissociation constants (Kd), IC50, and Schild regression analyses was performed with GraphPad Prism software (GraphPad Software Inc., La Jolla, Calif., USA).
(§4) To facilitate the characterization of the new compounds, cell-based TP receptor functional assays were optimized. HEK293 clones have been produced that stably express the human (hTP) or mouse (mTP) TP receptor (a isoform), and treatment of these clones with I-BOP ([1S-[1α,2α(Z),3β(1E,3S*),4α]]-7-[3-[3-hydroxy-4-(4-iodophenoxy)-1-butenyl]-7-oxabicyclo[2.2.1]hept-2-yl]-5-heptenoic acid) results in increased production of inositol triphosphate (IP3) (Knezevic, et al., 1993, Blood 82:A156; Shenker, et al., 1991, J Biol Chem 266:9309-9313; Huang, et al., 2004, Cell Signal 16:521-533) which can be quantified by measuring the breakdown product, inositol monophosphates (IP1), using a commercial time-resolved fluorescence assay. […] A radioligand binding assay was also developed to allow for the determination of binding affinities of compounds at the hTP and mTP receptors.

human TP receptor = biological target: T2, human TP receptor (Homo sapiens, UniProt P21731); experiment: Radioligand binding assay (3H-SQ29,548), human TP receptor; settings: hTP receptor
T2 construct: expressed in transfected cells
T2 sequence (P21731 1-343): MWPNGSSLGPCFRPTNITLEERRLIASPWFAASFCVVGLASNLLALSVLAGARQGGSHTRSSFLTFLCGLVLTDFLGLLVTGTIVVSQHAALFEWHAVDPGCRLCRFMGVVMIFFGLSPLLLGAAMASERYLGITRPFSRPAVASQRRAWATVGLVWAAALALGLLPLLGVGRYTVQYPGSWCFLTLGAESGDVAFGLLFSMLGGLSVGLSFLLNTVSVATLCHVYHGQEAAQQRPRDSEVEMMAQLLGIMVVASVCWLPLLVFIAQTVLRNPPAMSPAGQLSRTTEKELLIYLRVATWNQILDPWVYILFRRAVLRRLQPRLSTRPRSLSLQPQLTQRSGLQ
Protocol: as §1, §2, §3, §4

[3] = Pro-drug study: plasma levels of compound and carboxylic acid hydrolysis product (51280) by LC-MS/MS; format: in vivo; settings: female mice, 5 mg/kg, 1 h after injection
Protocol: Ester and amide examples can serve as pro-drugs to release the potent carboxylic acid TP receptor antagonist CNDR-51280. Compounds in were administered at 5 mg/kg to female mice, and levels of the compound and the carboxylic acid hydrolysis product (51280) were evaluated by LC-MS/MS 1 h after injection (Table 3).

[4] = mice, 5 mg/kg i.p., 1 h after dosing
[5] = mice, 5 mg/kg i.p., 4 h after dosing
[6] = female, B6C3HF1, mouse, brain/plasma (unbound), ip, 5 mg/kg
[7] = female, B6C3HF1, mouse, brain/plasma, ip, 5 mg/kg

SMILES: CCCCCNC(=O)NS(=O)(=O)c1cc([N+](=O)[O-])ccc1NC1CCCCC1 [BM567]
- fu(plasma) (fraction unbound) ([1]; plasma, equilibrium dialysis): 0.004 +/− 0.001
- fu(pl)/fu(br) ([1]; ratio of unbound fractions plasma/brain): 0.20
- B/P (brain-to-plasma ratio) ([2]; mice, 5 mg/kg i.p., 1 h): 0.01
- Brain [2, 4]: 40.2 ± 12.3 ng/mL
- Plasma [2, 4]: 3600 ± 923 ng/mL
- B/P (brain-to-plasma ratio) ([2]; mice, 5 mg/kg i.p., 4 h): 0.01
- Brain [2, 5]: 18.5 ± 7.8 ng/mL
- Plasma [2, 5]: 2248 ± 1400 ng/mL

SMILES: O=S(=O)(NC1CCc2c(CCc3nn[nH]n3)cccc2C1)c1ccc(Cl)cc1 (centres unmarked) [Compound 51279, N-(5-(2-(2H-Tetrazol-5-yl)ethyl)-1,2,3,4-tetrahydronaphthalen-2-yl)-4-chlorobenzenesulfonamide]
- affinity for TP receptor (mouse TP receptor): most tolerable substitutions
- affinity for TP receptor (mouse TP receptor; listed as CNDR-51279): well tolerated
- affinity for TP receptor (human TP receptor): most tolerable substitutions
- affinity for TP receptor (human TP receptor; listed as CNDR-51279): well tolerated
- brain penetration / brain levels of the drug ([2]; B6C3F1 mice, 5 mg/kg, 1 hour after injection): very little brain penetration

SMILES: O=S(=O)(NC1CCc2c(CCC3OCCO3)cccc2C1)c1ccc(Cl)cc1 (centres unmarked) [Compound 51414]
- brain penetration / brain levels of the drug ([2]; B6C3F1 mice, 5 mg/kg, 1 hour after injection; 5 mg/kg): greatly increased brain levels of the drug
- brain penetration / brain levels of the drug ([2]; B6C3F1 mice, 5 mg/kg, 1 hour after injection; listed as CNDR-51414, 5 mg/kg): brain-penetrant

SMILES: O=C(CCc1cccc2c1CCC(NS(=O)(=O)c1ccc(Cl)cc1)C2)NCC(F)(F)F (centres unmarked) [Compound 51418, 3-(6-(4-Chlorophenylsullfonamido)-5,6,7,8-tetrahydronaphthalen-1-yl)-N-(2,2,2-trifluoroethyl)-propanamide]
- affinity for TP receptor (mouse TP receptor): most tolerable substitutions
- Plasma (compound) [3]: 109 (+/− 45) nM
- XCOOH Plasma (carboxylic acid hydrolysis product 51280) [3]: 100 (+/− 43) nM
- affinity for TP receptor (human TP receptor): most tolerable substitutions

SMILES: O=C(O)Cc1ccc(CCNS(=O)(=O)c2ccc(Cl)cc2)cc1 [Daltroban]
- fraction unbound ([1]; brain homogenate, equilibrium dialysis, read-out: fu(brain) (fraction unbound)): 0.221
- plasma/brain unbound fraction ratio ([1]; plasma and brain homogenate, ratio of unbound fractions plasma/brain, read-out: fu(pl)/fu(br)): 0.52
- concentration at 1 h ([2]; female, B6C3HF1, mouse, brain, ip, 5 mg/kg, Brain, mice, 5 mg/kg i.p., 1 h after dosing): 133 ng/mL
- concentration at 4 h ([2]; female, B6C3HF1, mouse, brain, ip, 5 mg/kg, Brain, mice, 5 mg/kg i.p., 4 h after dosing): 55.9 ng/mL
- Kp at 1 h [2, 6]: 0.04
- Kp at 4 h [2, 6]: 0.06
- Kp at 1 h [2, 7]: 0.02
- Kp at 4 h [2, 7]: 0.03
- concentration at 1 h ([2]; female, B6C3HF1, mouse, plasma, ip, 5 mg/kg, Plasma, mice, 5 mg/kg i.p., 1 h after dosing): 6450 ng/mL
- concentration at 4 h ([2]; female, B6C3HF1, mouse, plasma, ip, 5 mg/kg, Plasma, mice, 5 mg/kg i.p., 4 h after dosing): 1790 ng/mL
